{
  "source": "patent US6239134A",
  "about": "“Diazole derivatives as serotonergic agents” (American Home Products Corp., priority 2000, dated 2001)",
  "key": {"human 5HT1A receptor [1]": {"biological_target": "T1, human 5HT1A receptor (Homo sapiens, UniProt P08908)", "T1 construct": "expressed in transfected cells; host or cells: CHO cells, stably transfected", "T1 sequence (P08908 1-422)": "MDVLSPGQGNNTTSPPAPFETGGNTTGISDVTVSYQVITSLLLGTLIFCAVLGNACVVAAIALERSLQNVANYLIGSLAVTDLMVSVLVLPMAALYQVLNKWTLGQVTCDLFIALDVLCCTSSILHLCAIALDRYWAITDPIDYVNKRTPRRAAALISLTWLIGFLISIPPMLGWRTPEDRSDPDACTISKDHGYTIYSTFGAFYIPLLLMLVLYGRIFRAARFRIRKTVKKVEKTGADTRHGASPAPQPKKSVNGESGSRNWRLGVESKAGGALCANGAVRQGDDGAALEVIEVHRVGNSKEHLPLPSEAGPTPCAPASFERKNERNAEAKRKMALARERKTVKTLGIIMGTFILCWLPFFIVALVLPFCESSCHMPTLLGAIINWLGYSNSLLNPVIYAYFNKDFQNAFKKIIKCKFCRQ", "assay": "5-HT1A Receptor Intrinsic Activity Assay (agonist mode; reversal of stimulated cAMP in stably transfected CHO cells)", "assay_type": "cell-based", "settings": "read-out: cAMP Emax", "description": "5-HT1A Receptor Intrinsic Activity Assay\nThe intrinsic activity of compounds of the present invention was established by testing the claimed compounds ability to reverse the stimulation of cyclic adenosinemonophosphate (cAMP) in CHO cells stably transfected with the human 5-HT1A receptor.\nStably transfected CHO cells were grown in DMEM containing 10% heat inactivated FBS and non-essential amino acids. The cells are plated at a density of […] per well in a 24 well plate and incubated for 2 days in a CO2 incubator. On the second day, the media is replaced with 0.5 mL treatment buffer (DMEM+25 mM HEPES, 5 mM theophylline, […] pargyline) and incubated for 10 minutes at 37° C. Wells are treated with forskolin ([…]) followed immediately by the test compound ([…] for initial screen) and incubated for an additional 10 minutes at 37° C. The reaction is terminated by removal of the media and addition of 0.5 mL ice cold assay buffer (supplied in the RIA kit). Plates are stored at -20° C. prior to assessment of cAMP formation by RIA. EC50 values are determined for the active test compounds. Compounds shown to have no agonist activities (Emax=0%) are further analyzed for their ability to reverse agonist induced activity. In separate experiments, 6 concentrations of antagonist are preincubated for 20 minutes prior to the addition of agonist and forskolin. Cells are harvested as described above. The cAMP kit is supplied by Amersham and the RIA is performed as per kit instructions, and calculations of IC50 performed by GraphPad Prism."}, "human 5HT1A receptor [2]": {"biological_target": "T1, human 5HT1A receptor", "assay": "5-HT1A Receptor Binding Assay (displacement of [3H] 8-OH-DPAT in stably transfected CHO cells)", "settings": "@ 1 _M, single point assay", "description": "5-HT1A Receptor Binding Assay\nHigh affinity for the serotonin 5-HT1A receptor was established by testing the claimed compound's ability to displace [3H] 8-OH-DPAT binding in CHO cells stably transfected with the human 5HT1A receptor. Stably transfected CHO cells are grown in DMEM containing 10% heat inactivated FBS and non-essential amino acids. Cells are scraped off the plate, transferred to centrifuge tubes, and washed twice by centrifugation (2000 rpm for 10 min., 4° C.) in buffer (50 mM Tris pH 7.5). The resulting pellets are aliquoted and placed at -80° C. On the day of assay, the cells are thawed on ice and resuspended in buffer. The binding assay is performed in a 96 well microtiter plate in a total volume of […]. Non-specific binding is determined in the presence of […], final ligand concentration is 1.5 nM. Following a 30 minute incubation at room temperature, the reaction is terminated by the addition of ice cold buffer and rapid filtration through a GF/B filter presoaked for 30 minutes in 0.5% PEI. Compounds are initially tested in a single point assay to determine percent inhibition at […], and Ki values are determined for the active compounds."}, "[3]": {"settings": "forskolin-stimulated cAMP, CHO cells"}},
  "note": "Structures can show the parent of a compound that is named as a salt. Where two headings read alike, the source gives them in different places.",
  "data": [
    {"smiles": "COc1nsnc1N1CCN(C[C@@H](Cc2ccccc2)N(C)C(=O)C2CCCCC2)CC1", "note": "[Compound 8, Cyclohexanecarboxylic acid {(1R)-1-benzyl-2-[4-(4-methoxy-[1,2,5]thiadiazol-3-yl)-piperazine-1-yl]ethyl}methyl amide]", "values": [
      {"measurement": "Emax", "setting": "human 5HT1A receptor [1]; [3]", "result": 0, "unit": "%"}
    ]},
    {"smiles": "COc1nsnc1N1CCN(C[C@@H](Cc2cccnc2)NC(=O)C2(C)CCCCC2)CC1", "note": "[Compound 11, 1-Methylcyclohexanecarboxylic acid {(1R)-2-[4-(4-methoxy-[1,2,5]thiadiazol-3-yl)-piperazin-1-yl]-1-pyridin-3-ylmethylethyl}amide]", "values": [
      {"measurement": "Emax", "setting": "human 5HT1A receptor [1]; [3]", "result": 0, "unit": "%"}
    ]},
    {"smiles": "O=C(N[C@@H](Cc1ccccc1)CN1CCN(c2nsnc2Cl)CC1)c1ccccn1", "note": "[Compound 6, Pyridine-2-carboxylic acid {(1S)-1-benzyl-2,3-[4(4-chloro[1,2,5]thiadiazol-3-yl)piperazin-1-yl]ethyl}amide]", "values": [
      {"measurement": "5-HT1A binding, percent inhibition", "setting": "human 5HT1A receptor [2]", "result": 47, "unit": "%"}
    ]},
    {"smiles": "CN(C(=O)C1CCCCC1)[C@H](Cc1ccccc1)CN1CCN(c2nsnc2Cl)CC1", "note": "[Compound 7]", "values": [
      {"measurement": "Emax", "setting": "human 5HT1A receptor [1]; [3]", "result": 0, "unit": "%"}
    ]},
    {"smiles": "O=C(N[C@@H](Cc1ccccc1)CN1CCN(c2nsnc2Cl)CC1)C1CCCCC1", "note": "[Compound 4, Cyclohexanecarboxylic acid {(1S)-1-benzyl-2-(4-(4-chloro[1,2,5}thiadiazol-3-yl)piperazin-1-yl]ethyl}amide fumarate]", "values": [
      {"measurement": "Emax", "setting": "human 5HT1A receptor [1]; CHO", "result": 93, "unit": "%"}
    ]}
  ]
}
